Measured values as given in patent publication US20180141991A1, “METHODS AND POLYPEPTIDES FOR MODULATION OF IMMUNORESPONSE” (Mackay Medical Foundation The Presbyterian Church In Taiwan …, priority 2015, published 2018).

How the values were obtained:
PD-L1 on monocytes = experiment: Surface expression of PD-L1 on primed monocytes, flow cytometry; format: cell-based, human; conditions: polypeptide 10 μg/mL, 24 hours, MFI relative to medium control (FIG. 3B)
Protocol: (§1) (A) Monocytes were incubated with rsTLT-1 (10 μg/mL) for 3 days. At the indicated time point, the cells were harvested and the HLA-DR and PD-L1 molecules were analyzed using flow cytometry. […] (B) Monocytes were cultured with different concentrations of rsTLT-1 for 2 days. The cells were then harvested and the HLA-DR and PD-L1 molecules were analyzed using flow cytometry. Surface molecule expression is presented as the mean fluorescence intensity (MFI) relative to each day that the cells were treated with the control medium (dashed line). Values are presented as mean±SEM from 3 independent experiments.
(A) depicts structural characteristics of extracellular domain of TLT-1 and designed TLT-1 polypeptides. […] The cells were then harvested and the PD-L1 molecules were analyzed using flow cytometry. Surface molecule expression is presented as the MFI relative to each day that the cells were treated with the medium control (dashed line).
(§2) White blood cell concentrates from healthy volunteers were obtained from the Taiwan Blood Service Foundation (Taipei, Taiwan). Written informed consent was obtained for participation in the study, which was approved by the Institutional Review Board of the MacKay Memorial Hospital. Human monocytes were isolated as previously described. […]

HLA-DR on monocytes = experiment: Surface expression of HLA-DR on primed monocytes, flow cytometry; format: cell-based, human; conditions: polypeptide 10 μg/ml, 48 hours of incubation (FIG. 4)
Protocol: as §1
Monocytes were cultured with 10 μg/ml TLT-1 15-63 polypeptide and 10 μg/ml rsTLT-1 for 2 days. The cells were then harvested and the HLA-DR molecules were analyzed using flow cytometry. Surface molecule expression is presented as the MFI relative to each day that the cells were treated with the medium control (dashed line).
as §2, with “described. In brief, peripheral blood mononuclear cells (PBMCs) were isolated using Ficoll-Paque Plus (GE Healthcare) gradient centrifugation.” for “described.”

Row | Substance | PD-L1 surface expression on monocytes (PD-L1 on monocytes) | HLA-DR surface expression on monocytes (HLA-DR on monocytes)
1 | TLT-1 34-63: ILVQCHYRLQDVKAQKVWCRFLPEGCQPLV (SEQ ID NO: 9; same sequence as SEQ ID NO: 1) (Polypeptide name TLT-1 34-63) | induced PD-L1 expression | –
2 | TLT-1 15-63: GQGIVGSLPEVLQAPVGSSILVQCHYRLQDVKAQKVWCRFLPEGCQPLV (SEQ ID NO: 7; same sequence as SEQ ID NO: 2) (Polypeptide name TLT-1 15-63) | significantly increased | decreased
